Measured values as given in paper PMC3627854 (Osteoporosis International, 2012).

Molecular target: T1, IKKα (Mus musculus, UniProt Q60680)
T1 sequence (Q60680 1-745): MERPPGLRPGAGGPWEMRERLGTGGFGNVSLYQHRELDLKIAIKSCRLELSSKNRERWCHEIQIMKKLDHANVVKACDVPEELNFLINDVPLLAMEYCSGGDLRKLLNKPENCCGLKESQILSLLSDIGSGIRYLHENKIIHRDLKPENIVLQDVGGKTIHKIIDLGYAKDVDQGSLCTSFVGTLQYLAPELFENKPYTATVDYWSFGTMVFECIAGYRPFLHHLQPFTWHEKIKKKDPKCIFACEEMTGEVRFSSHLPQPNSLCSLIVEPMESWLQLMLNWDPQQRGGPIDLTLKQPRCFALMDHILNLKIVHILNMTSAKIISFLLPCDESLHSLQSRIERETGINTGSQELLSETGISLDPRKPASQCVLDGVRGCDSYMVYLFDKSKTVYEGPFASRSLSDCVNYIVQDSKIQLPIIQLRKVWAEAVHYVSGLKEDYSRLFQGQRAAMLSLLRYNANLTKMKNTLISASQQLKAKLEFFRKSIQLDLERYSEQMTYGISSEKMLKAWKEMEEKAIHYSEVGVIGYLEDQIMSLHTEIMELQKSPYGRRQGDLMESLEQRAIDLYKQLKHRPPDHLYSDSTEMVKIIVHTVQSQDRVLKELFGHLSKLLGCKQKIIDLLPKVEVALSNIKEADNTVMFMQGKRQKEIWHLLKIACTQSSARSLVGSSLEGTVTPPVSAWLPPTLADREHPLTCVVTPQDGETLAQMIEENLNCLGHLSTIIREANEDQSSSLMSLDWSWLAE
Assay: IKKα KinEASE FP kinase activity assay, RANKL-stimulated RAW […] cells
Format: cell-based

Question: How did the IC50 turn out when `O=C1C[C@@H](O[C@@H]2O[C@H](CO)[C@@H](O)[C@H](O)[C@H]2O)CO1` [kinsenoside, 3-(R)-3-β-D-glucopyranosyloxybutanolide] was run?
Answer: ~57.6 µM
